From patent US20240174671A1, “New 2,3-Dihydro-1H-pyrrolo[3,2-b]pyridine Derivatives as Sigma Ligands” (ACONDICIONAMIENTO TARRASENSE, priority 2021, published 2024) come the findings set out here.

Like-named read-outs stand apart in the source and are kept apart here.

One assay concerns the target T1, human σ2/TMEM97 receptor (Homo sapiens, UniProt Q5BJF2).
T1 construct: expressed in transfected cells; host or cells: HEK-293
Put plainly: Binding assay to human σ2/TMEM97 receptor ([3H]-DTG). As to conditions: transfected HEK-293 membranes, 10 nM [3H]-DTG, 25° C., 120 minutes; read-out: Binding σ-[…] (binding to σ2-receptor expressed as Ki). The method in brief: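 Membranes from transfected HEK-293 cells incubated with 10 nM [3H]-DTG in 50 mM Tris-HCl pH 8.0, 120 min at 25 °C; non-specific binding defined with 10 μM haloperidol. Bound radioactivity counted after filtration; compounds tested as % inhibition at 1 or 10 μM or at five concentrations for Ki.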

The target in the next assay is T2, human σ1 receptor (Homo sapiens, UniProt Q99720).
T2 construct: expressed in transfected cells; host or cells: HEK-293
Description: Human σ1 receptor radioligand assay ([3H](+)-pentazocine). The class given is binding. The method in brief: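 Binding used [3H](+)-pentazocine, 120 min at 37° C, with non-specific binding defined by 10 μM haloperidol. Bound radioligand was collected by filtration, washed with ice-cold 10 mM Tris-HCl pH 7.4 and counted by scintillation.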

The mark [1] stands for this setting: transfected HEK-293 membranes, 5 nM [3H](+)-pentazocine, 37° C., 120 minutes, read-out: Binding σ-[…] (binding to σ1-receptor expressed as Ki).

T2 sequence (Q99720 whole entry): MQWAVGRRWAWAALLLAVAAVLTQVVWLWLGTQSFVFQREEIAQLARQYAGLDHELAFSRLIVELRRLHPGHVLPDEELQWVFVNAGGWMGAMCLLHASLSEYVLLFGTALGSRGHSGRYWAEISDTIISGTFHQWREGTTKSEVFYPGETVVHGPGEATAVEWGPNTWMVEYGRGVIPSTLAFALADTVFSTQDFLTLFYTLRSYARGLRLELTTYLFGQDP
T1 sequence (Q5BJF2 whole entry): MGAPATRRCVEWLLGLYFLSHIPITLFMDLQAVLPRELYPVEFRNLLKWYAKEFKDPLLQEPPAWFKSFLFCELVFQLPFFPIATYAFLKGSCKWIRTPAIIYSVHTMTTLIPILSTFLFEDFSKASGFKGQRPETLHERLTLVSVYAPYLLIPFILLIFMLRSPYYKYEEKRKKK

As to `Cc1ccc2c(n1)C(C)(C)CN2C(=O)N1CCC2(CCN(Cc3ccc(C#N)c(F)c3)CC2)CC1` [Example 163, 2-fluoro-4-((9-(3,3,5-trimethyl-2,3-dihydro-1H-pyrrolo[3,2-b]pyridine-1-carbonyl)-3,9-diazaspiro[5.5]undecan-3-yl)methyl)benzonitrile], the Ki on human σ2/TMEM97 receptor and at human σ1 receptor (setting [1]) was 0.1 to 0.5 µM throughout.
Turning to `CC1(C)CN(C(=O)N2CCC3(CCN(Cc4cc(F)ccc4F)CC3)CC2)c2cccnc21` [Example 164, (9-(2,5-difluorobenzyl)-3,9-diazaspiro[5.5]undecan-3-yl)(3,3-dimethyl-2,3-dihydro-1H-pyrrolo[3,2-b]pyridin-1-yl)methanone], the Ki on human σ2/TMEM97 receptor and at human σ1 receptor (setting [1]) was under 0.1 µM throughout.
On to `CC1(C)CN(C(=O)N2CCC3(CCN(Cc4ccc(C#N)cc4F)CC3)CC2)c2cccnc21` [Example 165, 4-((9-(3,3-dimethyl-2,3-dihydro-1H-pyrrolo[3,2-b]pyridine-1-carbonyl)-3,9-diazaspiro[5.5]undecan-3-yl)methyl)-3-fluorobenzonitrile], for which the Ki on human σ2/TMEM97 receptor and at human σ1 receptor (setting [1]) was under 0.1 µM in each case.
As to `CC1(C)CN(C(=O)N2CCC3(CCN(CC4CCOCC4)CC3)CC2)c2cccnc21` [Example 166, (3,3-dimethyl-2,3-dihydro-1H-pyrrolo[3,2-b]pyridin-1-yl)(9-((tetrahydro-2H-pyran-4-yl)methyl)-3,9-diazaspiro[5.5]undecan-3-yl)methanone], the Ki at human σ2/TMEM97 receptor was under 0.1 µM; on human σ1 receptor (setting [1]) it was 0.1 to 0.5 µM.
The like results for `CC1(C)CN(C(=O)N2CCC3(CCN(Cc4cc(C#N)c(F)cc4F)CC3)CC2)c2cccnc21` [Example 167, 5-((9-(3,3-dimethyl-2,3-dihydro-1H-pyrrolo[3,2-b]pyridine-1-carbonyl)-3,9-diazaspiro[5.5]undecan-3-yl)methyl)-2,4-difluorobenzonitrile] were, in that order, under 0.1 µM and under 0.1 µM.
Turning to `Cc1ccc2c(n1)C(C)(C)CN2C(=O)[C@H]1CC[C@H](N(C)Cc2cc(F)cc(F)c2)CC1` [Example 168, ((1r,4r)-4-((3,5-difluorobenzyl)(methyl)amino)cyclohexyl)(3,3,5-trimethyl-2,3-dihydro-1H-pyrrolo[3,2-b]pyridin-1-yl)methanone], the Ki at human σ2/TMEM97 receptor and on human σ1 receptor (setting [1]) was under 0.1 µM in each case.
`Cc1ccc2c(n1)C(C)(C)CN2C(=O)[C@H]1CC[C@H](N(C)Cc2cccc(F)c2)CC1` [Example 169, ((1r,4r)-4-((3-fluorobenzyl)(methyl)amino)cyclohexyl)(3,3,5-trimethyl-2,3-dihydro-1H-pyrrolo[3,2-b]pyridin-1-yl)methanone]: the Ki at human σ2/TMEM97 receptor and on human σ1 receptor (setting [1]) was under 0.1 µM throughout.
`Cc1ccc2c(n1)C(C)(C)CN2C(=O)[C@H]1CC[C@H](N(C)Cc2ccc(F)c(F)c2)CC1` [Example 170, ((1r,4r)-4-((3,4-difluorobenzyl)(methyl)amino)cyclohexyl)(3,3,5-trimethyl-2,3-dihydro-1H-pyrrolo[3,2-b]pyridin-1-yl)methanone]: the Ki at human σ2/TMEM97 receptor and on human σ1 receptor (setting [1]) was under 0.1 µM throughout.
As for `Cc1ccc2c(n1)C(C)(C)CN2C(=O)[C@H]1CC[C@H](N(C)Cc2c(F)cccc2F)CC1` [Example 171, ((1r,4r)-4-((2,6-difluorobenzyl)(methyl)amino)cyclohexyl)(3,3,5-trimethyl-2,3-dihydro-1H-pyrrolo[3,2-b]pyridin-1-yl)methanone], the Ki at human σ2/TMEM97 receptor and on human σ1 receptor (setting [1]) was under 0.1 µM in each case.
Consider `Cc1ccc2c(n1)C(C)(C)CN2C(=O)[C@H]1CC[C@H](N(C)Cc2ccc(F)cc2F)CC1` [Example 172, ((1r,4r)-4-((2,4-difluorobenzyl)(methyl)amino)cyclohexyl)(3,3,5-trimethyl-2,3-dihydro-1H-pyrrolo[3,2-b]pyridin-1-yl)methanone], for which the inhibition constant Ki on human σ2/TMEM97 receptor and at human σ1 receptor (setting [1]) was under 0.1 µM each time.
Consider `Cc1ccc2c(n1)C(C)(C)CN2C(=O)[C@H]1CC[C@H](N(C)Cc2cc(F)ccc2F)CC1` [Example 173, ((1r,4r)-4-((2,5-difluorobenzyl)(methyl)amino)cyclohexyl)(3,3,5-trimethyl-2,3-dihydro-1H-pyrrolo[3,2-b]pyridin-1-yl)methanone], for which the Ki at human σ2/TMEM97 receptor and at human σ1 receptor (setting [1]) was under 0.1 µM each time.
As to `Cc1ccc2c(n1)C(C)(C)CN2C(=O)[C@H]1CC[C@H](N(C)Cc2cccc(F)c2F)CC1` [Example 174, ((1r,4r)-4-((2,3-difluorobenzyl)(methyl)amino)cyclohexyl)(3,3,5-trimethyl-2,3-dihydro-1H-pyrrolo[3,2-b]pyridin-1-yl)methanone], the Ki on human σ2/TMEM97 receptor and at human σ1 receptor (setting [1]) was under 0.1 µM throughout.
In the case of `CN(Cc1ccccc1F)[C@H]1CC[C@H](C(=O)N2CC(C)(C)c3ncccc32)CC1` [Example 175, (3,3-dimethyl-2,3-dihydro-1H-pyrrolo[3,2-b]pyridin-1-yl)((1r,4r)-4-((2-fluorobenzyl)(methyl)amino)cyclohexyl)methanone], the Ki on human σ2/TMEM97 receptor and on human σ1 receptor (setting [1]) was under 0.1 µM throughout.
As for `CN(Cc1cc(F)ccc1F)[C@H]1CC[C@H](C(=O)N2CC(C)(C)c3ncccc32)CC1` [Example 176, ((1r,4r)-4-((2,5-difluorobenzyl)(methyl)amino)cyclohexyl)(3,3-dimethyl-2,3-dihydro-1H-pyrrolo[3,2-b]pyridin-1-yl)methanone], the Ki at human σ2/TMEM97 receptor and on human σ1 receptor (setting [1]) was under 0.1 µM each time.
For the molecule `Cc1ccc2c(n1)C(C)(C)CN2C(=O)[C@H]1CC[C@H](N(C)Cc2ccnc(C(F)(F)F)c2)CC1` [Example 177, ((1r,4r)-4-(methyl((2-(trifluoromethyl)pyridin-4-yl)methyl)amino)cyclohexyl)(3,3,5-trimethyl-2,3-dihydro-1H-pyrrolo[3,2-b]pyridin-1-yl)methanone], the inhibitory constant (Ki) at human σ2/TMEM97 receptor was under 0.1 µM; at human σ1 receptor (setting [1]), 0.1 to 0.5 µM.
For `Cc1ccc2c(n1)C(C)(C)CN2C(=O)[C@H]1CC[C@H](N(C)Cc2ncccc2F)CC1` [Example 178, ((1r,4r)-4-(((3-fluoropyridin-2-yl)methyl)(methyl)amino)cyclohexyl)(3,3,5-trimethyl-2,3-dihydro-1H-pyrrolo[3,2-b]pyridin-1-yl)methanone] the same measures were 0.1 to 0.5 µM and under 0.1 µM.
For `Cc1ccc2c(n1)C(C)(C)CN2C(=O)[C@H]1CC[C@H](N(C)Cc2ccc(F)cn2)CC1` [Example 179, ((1r,4r)-4-(((5-fluoropyridin-2-yl)methyl)(methyl)amino)cyclohexyl)(3,3,5-trimethyl-2,3-dihydro-1H-pyrrolo[3,2-b]pyridin-1-yl)methanone] the same measures were 0.1 to 0.5 µM and under 0.1 µM.
Take `Cc1ccc2c(n1)C(C)(C)CN2C(=O)[C@H]1CC[C@H](N(C)Cc2ccc(C#N)c(F)c2)CC1` [Example 180, 2-fluoro-4-((methyl((1r,4r)-4-(3,3,5-trimethyl-2,3-dihydro-1H-pyrrolo[3,2-b]pyridine-1-carbonyl)cyclohexyl)amino)methyl)benzonitrile]: the Ki at human σ2/TMEM97 receptor and on human σ1 receptor (setting [1]) was under 0.1 µM in each case.
Regarding `Cc1ccc2c(n1)C(C)(C)CN2C(=O)[C@H]1CC[C@H](N(C)Cc2ccc(F)c(C#N)c2)CC1` [Example 181, 2-fluoro-5-((methyl((1r,4r)-4-(3,3,5-trimethyl-2,3-dihydro-1H-pyrrolo[3,2-b]pyridine-1-carbonyl)cyclohexyl)amino)methyl)benzonitrile], the Ki on human σ2/TMEM97 receptor and at human σ1 receptor (setting [1]) was under 0.1 µM each time.
Turning to `Cc1ccc2c(n1)C(C)(C)CN2C(=O)[C@H]1CC[C@H](N(C)Cc2ccc(F)cc2)CC1` [Example 182, ((1r,4r)-4-((4-fluorobenzyl)(methyl)amino)cyclohexyl)(3,3,5-trimethyl-2,3-dihydro-1H-pyrrolo[3,2-b]pyridin-1-yl)methanone], the Ki on human σ2/TMEM97 receptor and at human σ1 receptor (setting [1]) was under 0.1 µM each time.
Consider `Cc1ccc2c(n1)C(C)(C)CN2C(=O)[C@H]1CC[C@H](N(C)Cc2ccccc2F)CC1` [Example 183, ((1r,4r)-4-((2-fluorobenzyl)(methyl)amino)cyclohexyl)(3,3,5-trimethyl-2,3-dihydro-1H-pyrrolo[3,2-b]pyridin-1-yl)methanone], for which the Ki on human σ2/TMEM97 receptor and at human σ1 receptor was under 0.1 µM throughout.
As to `Cc1ccc2c(n1)C(C)(C)CN2C(=O)[C@H]1CC[C@H](N(C)Cc2ccc(C(F)(F)F)nc2)CC1` [Example 184, ((1r,4r)-4-(methyl((6-(trifluoromethyl)pyridin-3-yl)methyl)amino)cyclohexyl)(3,3,5-trimethyl-2,3-dihydro-1H-pyrrolo[3,2-b]pyridin-1-yl)methanone], the Ki at human σ2/TMEM97 receptor and at human σ1 receptor (setting [1]) was under 0.1 µM each time.
Turning to `Cc1ccc2c(n1)C(C)(C)CN2C(=O)[C@H]1CC[C@H](N(C)CC2CCOCC2)CC1` [Example 185, ((1r,4r)-4-(methyl((tetrahydro-2H-pyran-4-yl)methyl)amino)cyclohexyl)(3,3,5-trimethyl-2,3-dihydro-1H-pyrrolo[3,2-b]pyridin-1-yl)methanone], the Ki on human σ2/TMEM97 receptor is under 0.1 µM; on human σ1 receptor (setting [1]), 0.1 to 0.5 µM.
For `CN(Cc1ccccc1)[C@H]1CC[C@H](C(=O)N2CC(C)(C)c3nc(C(F)(F)F)ccc32)CC1` [Example 186, ((1r,4r)-4-(benzyl(methyl)amino)cyclohexyl)(3,3-dimethyl-5-(trifluoromethyl)-2,3-dihydro-1H-pyrrolo[3,2-b]pyridin-1-yl)methanone] the same measures were over 1 µM and under 0.1 µM.
